PMC10731658 (Chemical Research in Toxicology, 2023)

Columns and labels:
HepG2 cells [1] = assay: Intracellular RONS detection with DCFH-DA fluorescent probe; type: cell-based, human; conditions: IC50 concentration
Protocol: Two different fluorescent dyes, i.e., 2,7-dichlorodihydrofluorescein diacetate (DCFH-DA, Cayman Chemicals Company, Ann Arbor, MI) and dihydroethidium (DHE, Sigma-Aldrich, St. Louis, MO) were utilized for the determination of intracellular levels of RONS after 1, 4, and 24 h of incubation with tested oxime reactivators or TBHP (positive control). Cells incubated with oxime-free DMEM represented untreated control. After the incubation, the experimental medium was removed and replaced with a solution of DCFH-DA or DHE at concentrations of 20 and 5 μmol/L, respectively. The cells were subsequently incubated at 37 °C in a CO2 incubator for 45 min. Afterward, the fluorescence intensity of each well was measured using a Spark multimode microplate reader at an excitation wavelength of 485 nm for DCFH-DA or 528 nm for the DHE probe and an emission wavelength of 535 or 590 nm, respectively. Each experiment was carried out in triplicate and repeated three independent times.
The toxicological indices IC50 were calculated from control-subtracted triplicates using nonlinear regression (four parameters) using GraphPad Prism 9 software version 9.3.0 (GraphPad Software Inc., San Diego, CA). One-way analysis of variance (ANOVA) followed by Dunnetʼs multiple comparison test was used for RONS, MDA, NP-SH, and NP-SS-NP statistical analysis by GraphPad Prism 9 software, version 9.3.0. Data are expressed as means ± standard deviation (SD) of three independent measurements (n = 3). Significant differences between oxime-treated and untreated control groups (p ≤ 0.05) were marked by an asterisk (*).

HepG2 cells [2] = assay: Total intracellular MDA by LC-MS/MS; type: cell-based, human; conditions: IC50 concentration
HepG2 cells [3] = assay: Intracellular nonprotein thiols (NP-SH) by HPLC-UV; type: cell-based, human; conditions: 24 h, IC50 concentration
Protocol: (§1) The culture medium was removed from a 25 cm^2 culture flask on the day of the experiment, and cells were washed twice with 3 mL of phosphate-buffered saline (PBS; GE Healthcare Life Sciences, South Logan, UT). Subsequently, 3 mL of a plain DMEM medium (negative control) and a DMEM medium containing TBHP (positive control) or individual oximes were added to each flask, and cells were incubated for 1, 4, and 24 h. The concentration of individual oxime and TBHP in the DMEM medium corresponded to the IC50 value. After incubation, the experimental medium was removed, and cells were washed with 3 mL of PBS and harvested by scraping. The resulting suspension was centrifuged at 220g and 21 °C for 5 min (Universal 320R centrifuge, Hettich, Tuttlingen, Germany). The supernatant was removed and dried cell pellets were stored at −80 °C. Each experiment was carried out in three independent replicates.
(§2) The cell pellets were thawed at room temperature, resuspended in 500 μL of ultrapure water (Millipore Purification System, Merck, Millipore, Darmstadt, Germany), and sonicated for 2 min (2 s cycle, amplitude 20%) in a Q500 homogenizer (QSONICA Sonicators, Newton). Then, the homogenate was divided into three parts: 250 μL for the determination of malondialdehyde (MDA), 100 μL for each determination of nonprotein thiols (NP-SH) and disulfides (NP-SS-NP), and 10 μL for the Bradford protein assay.
(§3) The HepG2 cell homogenate obtained, as described in Section 2.6, was processed for the determination of intracellular NP-SH and NP-SS-NP, according to Muckova et al.[11] The samples were analyzed using the HPLC system described above equipped with an SPD 20-AV Prominence UV/vis detector. The analysis was carried out on a Phenomenex LUNA C18 column (150 mm × 3 mm, 3 μm, 100 Å) protected with a Security Cartridge (4 mm × 2 mm, Phenomenex, Torrance) at 30 °C and a constant flow rate of 0.330 mL/using the mobile phase consisting of 0.9% aqueous FA (A) and ACN (B) under gradient conditions: 0–1 min 12% B, 1.1–2 min 12–55% B, 2–7 min 55% B, 7.1 min 55% B, and 7.1–10 min 12% B. The detector was set at 326 nm and the sample injection volume was 20 μL.

HepG2 cells [4] = assay: Intracellular nonprotein disulfides (NP-SS-NP) by HPLC-UV; type: cell-based, human; conditions: IC50 concentration
Protocol: as §1, §2, §3

HepG2 cells [5] = conditions: combined exposure with TBHP (IC50 concentration); oximes about 10-fold below IC50; cited from earlier work
[6] = reference not given; cited from earlier work
rat plasma = conditions: in vivo; cited from earlier work
[7] = Colorimetric MTT cell viability assay, 24 h; conditions: human, HepG2 cells, IC50 (cytotoxicity, MTT assay), 24 h incubation
HepG2 cells [8] = assay: Colorimetric MTT cell viability assay, 24 h; conditions: read-out: IC50 (cytotoxicity, MTT assay), 24 h incubation

| SMILES | increase of RONS (DCFH-DA probe) vs negative control (HepG2 cells [1]; 1 h incubation) | increase of RONS (DCFH-DA probe) vs negative control (HepG2 cells [1]; 4 h incubation) | increase of RONS (DCFH-DA probe) vs negative control (HepG2 cells [1]; 24 h incubation) | increase of MDA levels vs untreated control (HepG2 cells [2]; 4 h incubation) | increase of MDA levels vs untreated control (HepG2 cells [2]; 24 h exposure) | decrease in NP-SH levels vs untreated control (HepG2 cells [3]) | increase in NP-SS-NP levels vs untreated control (HepG2 cells [4]; 1 h) | increase in NP-SS-NP levels vs untreated control (HepG2 cells [4]; 4 h) | increase in NP-SS-NP levels vs untreated control (HepG2 cells [4]; 24 h) | increased production of ROS (HepG2 cells [5]) | log P [6] | signs of oxidative stress (TBARS, superoxide dismutase activity) (rat plasma) | IC50 at 24 h [7] | IC50 (HepG2 cells [8]) |
| --- | --- | --- | --- | --- | --- | --- | --- | --- | --- | --- | --- | --- | --- | --- |
| NC(=O)c1cc[n+](CCCC[n+]2ccc(C=NO)cc2)cc1.[Br-].[Br-] [K048, 4-carbamoyl-1-(4-(4-((hydroxyimino)methyl)pyridin-1-ium-1-yl)butyl)pyridin-1-ium dibromide] | 146% | 193% | 115% | 17.2% | 35.4% | 11.4% | 34.8% | 54.8% | 61.5% | 25% | −2.61 | no signs of oxidative stress | ~30 mM | 30.6 mM |
| O/N=C/c1cc[n+](CCCC[n+]2ccc(/C=N/O)cc2)cc1 [K074, 1,1′-(butane-1,4-diyl)bis(4((hydroxyimino)methyl)pyridine-1-ium) dibromide] | 171% | 244% | 117% | 23.6% | 36.1% | 11.6% | 42.8% | 52.4% | 72.3% | 16% | −1.74 |  | ~27 mM | 27.2 mM |
